Structures can show the parent of a compound that is named as a salt.
What follows are compounds tested on Acinetobacter baumannii ATCC 17978 (assay: Antimicrobial susceptibility testing: 90% growth inhibitory concentration (IC90) determination). Details: 90% growth inhibitory concentration; Acinetobacter baumannii ATCC17978; Iso-Sensitest broth, OD 600 nm over 16h; read-out: ATCC17978 IC90.
Type: cell-based
How it was run: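 Compounds serially twofold diluted (e.g. 50 to 0.097 μM final) in Iso-Sensitest broth, inoculated at ~5×10^(5) CFU/ml, incubated at 35±2° C. OD600 read every 20 minutes over 16h. IC90 taken as concentration inhibiting 90% of growth during logarithmic phase.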

Point of comparison: `COc1ccc(-c2cnc3c(Nc4ccc(C(=O)N(C)CC(=O)N5CCNCC5)c(C)c4)nccn23)cc1F` [Example 5, hydrochloride], IC90 0.65 µM. Against it:
- Cc1cc(Nc2nccn3c(-c4ccc(Cl)cc4)cnc23)ccc1C(=O)NCCCN [Example 236, N-(3-aminopropyl)-4-[[3-(4-chlorophenyl)imidazo[1,2-a]pyrazin-8-yl]amino]-2-methylbenzamide; hydrochloride] — 2.2-fold higher, 1.4 µM
- 4-((3-(4- (difluoromethoxy) phenyl)imidazo[1,2- a]pyrazin-8- yl)amino)-N-methyl- 2- (trifluoromethyl) benzamide [Example 53] — 2.7-fold lower, 0.24 µM

Same assay, conditions: Acinetobacter baumannii, ATCC17978, 16 h, 90% growth inhibitory concentration; Acinetobacter baumannii ATCC17978; Iso-Sensitest broth, OD 600 nm over 16h; read-out: ATCC17978 IC90

Point of comparison: `COc1ccc(-c2cnc3c(Nc4ccc(C(=O)N[C@@H](C)CN)c(Cl)c4)nccn23)c(F)c1F` [Example 505, #N!-[(2#S!)-1-aminopropan-2-yl]-2-chloro-4-[[3-(2,3-difluoro-4-methoxyphenyl)imidazo[1,2-a]pyrazin-8-yl]amino]benzamide;dihydro-chloride], IC90 0.27 µM. Against it:
- CCc1cc(Nc2nccn3c(-c4ccc(Oc5ccccn5)c(F)c4F)cnc23)ccc1C(=O)NCCCCCC(=O)N1CCN[C@H](CO)C1 [Example 478, 4-[[3-[2,3-difluoro-4-(2-pyridyloxy)phenyl]imidazo [1,2-a]pyrazin-8-yl]amino]-2-ethyl-N-[6-[(3S)-3-(hydroxymethyl)piperazin-1-yl]-6-oxo-hexyl]benzamide] — within 1.5-fold, 0.38 µM
- Cc1cc(Nc2nccn3c(-c4ccc(Cl)c(F)c4F)cnc23)ccc1C(=O)N[C@@H](C)CN [Example 258, N-[(2S)-1-aminopropan-2-yl]-4-[[3-(4-chloro-2,3-difluorophenyl)imidazo[1,2-a]pyrazin-8-yl]amino]-2-methylbenzamide;hydrochlo-ride] — 13-fold higher, 3.6 µM
- Cc1cc(Nc2nccn3c(-c4ccc(OC(F)F)cc4)cnc23)ccc1C(=O)N(C)CCC1CCN(CCC#N)CC1 [Example 309, N-[2-[1-(2-cyanoethyl)piperidin-4-yl]ethyl]-4-[[3-[4-(difluoromethoxy)phenyl]im-idazo[1,2-a]pyrazin-8-yl]amino]-N,2-dimethylbenzamide] — 2.6-fold higher, 0.69 µM
- CCc1cc(Nc2nccn3c(-c4ccc(OC)c(F)c4F)cnc23)ccc1C(=O)NCCNC(=O)CCCN [Example 360, N-[2-(4-aminobutanoylamino)ethyl]-4-[[3-(2,3-difluoro-4-methoxyphenyl)imidazo[1,2-a]pyrazin-8-yl]amino]-2-ethylbenzamide] — 3.9-fold lower, 0.07 µM
- Cc1cc(Nc2nccn3c(-c4ccc(OC(F)F)cc4)cnc23)ccc1C(=O)N(C)CCC1CCN(CCC(=O)O)CC1 [Example 150, 3-(4-(2-(4-((3-(4-(difluoromethoxy)phenyl)imidazo[1,2-a]pyrazin-8-yl)amino)-N,2-dimethylbenzamido)ethyl)piperidin-1-yl)propanoic acid] — 2.4-fold higher, 0.65 µM
- Cc1cc(Nc2nccn3c(-c4ccc(OC(F)F)cc4)cnc23)ccc1C(=O)N(C)CCC1CCN(S(C)(=O)=O)CC1 [Example 234, 4-[[3-[4-(difluoromethoxy)phenyl]im-idazo[1,2-a]pyrazin-8-yl]amino]-N,2-dimethyl-N-[2-(1-methylsulfonylpiperidin-4-yl)ethyl]benzamide] — 4.8-fold higher, 1.3 µM
- CCc1cc(Nc2nccn3c(-c4ccc(OC)c(F)c4F)cnc23)ccc1C(=O)NC[C@@H]1CNC[C@@H]1O [Example 531, 4-((3-(2,3-difluoro-4-methoxyphenyl)imidazo[1,2-a]pyrazin-8-yl)amino)-2-ethyl-N-(((3S,4R)-4-hydroxypyrrolidin-3-yl)methyl)benzamide hydrochloride] — 1.8-fold lower, 0.15 µM
- CCc1cc(Nc2nccn3c(-c4ccc(OC)c(F)c4F)cnc23)ccc1C(=O)NCC1CCN(Cc2cccnc2)CC1 [Example 554, 4-[[3-(2,3-difluoro-4-methoxy-phenyl)imidazo[1,2-a]pyrazin-8-yl]amino]-2-ethyl-N-[[1-(3-pyridylmethyl)-4-piperidyl]methyl]benzamide] — 1.6-fold lower, 0.17 µM
- CCc1cc(Nc2nccn3c(-c4ccc(OCC#N)c(F)c4F)cnc23)ccc1C(=O)NCCNC(=O)[C@@H](N)CCCNC(=N)N [Example 124, N-[2-[[(2S)-2-amino-5-guanidino-pentanoyl]amino]ethyl]-4-[[3-[4-(cyanomethoxy)-2,3-difluoro-phenyl]imidazo[1,2-a]pyrazin-8-yl]amino]-2-ethyl-benzamide formate] — 3-fold lower, 0.09 µM
- CCc1cc(Nc2nccn3c(-c4ccc(OC)c(F)c4F)cnc23)ccc1C(=O)NC(C)CNC(C)=N (stereo not drawn) [Example 169, 4-[[3-(2,3-difluoro-4-methoxyphenyl)imidazo[1,2-a]pyrazin-8-yl]amino]-N-[1-(ethanimidoylamino)propan-2-yl]-2-ethylbenzamide] — 3.9-fold lower, 0.07 µM
- C=CCNC(=O)c1ccc(Nc2nccn3c(-c4ccc(OC)c(F)c4F)cnc23)cc1CC [Example 329, 4-[[3-(2,3-difluoro-4-methoxyphenyl)imidazo[1,2-a]pyrazin-8-yl]amino]-2-ethyl-N-prop-2-enylbenzamide] — 1.9-fold lower, 0.14 µM
- CNC(=O)c1ccc(Nc2nccn3c(-c4ccc(OC(F)F)cc4)cnc23)cc1C1CC1 [Example 167, 2-cyclopropyl-4-[[3-[4-(difluoromethoxy)phenyl]imidazo[1,2-a]pyrazin-8-yl]amino]-N-methyl-benzamide] — 4.1-fold higher, 1.1 µM
- Cc1cc(Nc2nccn3c(-c4ccc(OC(F)F)cc4)cnc23)ccc1C(=O)NCCN1CCOCC1=O [Example 247, 4-[[3-[4-(difluoromethoxy)phenyl]im-dazo[1,2-a]pyrazin-8-yl]amino]-2-methyl-N-[2-(3-oxomorpholin-4-yl)ethyl]benzamide] — 8.9-fold higher, 2.4 µM
- CCc1cc(Nc2nccn3c(-c4ccc(OC)c(F)c4F)cnc23)ccc1C(=O)N[C@H](C)CN [Example 101, (R)-N-(1-aminopropan-2-yl)-4-((3-(2,3-difluoro-4-methoxyphenyl)imidazo [1,2-a]pyrazin-8-yl)amino)-2-ethylbenzamide dihydrochloride] — within 1.5-fold, 0.24 µM
- CCc1cc(Nc2nccn3c(-c4ccc(Oc5ccc(OC)cn5)c(F)c4F)cnc23)ccc1C(=O)NCCNC(=O)[C@H](N)CCNC(=N)N [Example 450, N-[2-[[(2R)-2-amino-4-guanidino-butanoyl]amino]ethyl]-4-[[3-[2,3-difluoro-4-[(5-methoxy-2-pyridyl)oxy]phenyl]imidazo [1,2-a]pyrazin-8-yl]amino]-2-ethyl-benzamide] — 2.1-fold higher, 0.56 µM
- Cc1cc(Nc2nccn3c(-c4ccc(OC(F)F)cc4)cnc23)ccc1C(=O)NCCN1CCNCC1 [Example 46] — 1.8-fold higher, 0.49 µM
- COc1ccc(-c2cnc3c(Nc4ccc(C(=O)NCCCN)c(C)c4)nccn23)cc1 [Example 51, N-(3-aminopropyl)-4-((3-(4-methoxyphenyl)imidazo [1,2-a]pyrazin-8-yl)amino)-2-methylbenzamide hydrochloride] — 3.6-fold higher, 0.96 µM
- O=C(NCC1CCNCC1)c1ccc(Nc2nccn3c(-c4ccc(OC(F)F)c(F)c4F)cnc23)cc1Cl [Example 43, 2-chloro-4-[[3-[4-(difluoromethoxy)-2,3-difluoro-phenyl]imidazo[1,2-a]pyrazin-8-yl]amino]-N-(4-piperidylmethyl) benzamide; 2,2,2-trifluoroacetic acid] — within 1.5-fold, 0.22 µM
- Cc1cc(Nc2nccn3c(-c4ccc(OC(F)F)cc4)cnc23)ccc1C(=O)NCCN [Example 266, N-(2-aminoethyl)-4-[[3-[4-(difluoromethoxy)phenyl]im-idazo[1,2-a]pyrazin-8-yl]amino]-2-methylbenzamide;hydrochlo-ride] — 19-fold higher, 5.1 µM
- COc1ccc(-c2cnc3c(Nc4ccc(C(=O)NCC5CCNCC5)c(C)c4)nccn23)cc1F [Example 213, 4-[[3-(3-fluoro-4-methoxyphenyl)imidazo[1,2-a]pyrazin-8-yl]amino]-2-methyl-N-(piperidin-4-ylmethyl)benzamide;hydrochlo-ride] — 2.4-fold higher, 0.66 µM
- COc1ccc(-c2cnc3c(Nc4ccc(C(=O)NCC5OCC(N)CO5)c(C)c4)nccn23)cc1 (stereo not drawn) [Example 206, N-[(5-amino-1,3-dioxan-2-yl)methyl]-4-[[3-(4-methoxyphenyl)imidazo[1,2-a]pyrazin-8-yl]amino]-2-methylbenzamide] — 2-fold higher, 0.54 µM
- N#CCOc1ccc(-c2cnc3c(Nc4ccc(C(=O)NCCc5ccncc5)c(Cl)c4)nccn23)c(F)c1F [Example 75, 2-chloro-4-((3-(4-(cyanomethoxy)-2,3-difluorophenyl)imidazo [1,2-a]pyrazin-8-yl)amino)-N-(2-(pyridin-4-yl)ethyl)benzamide] — 3-fold lower, 0.09 µM
- CCc1cc(Nc2nccn3c(-c4ccc(OC)c(F)c4F)cnc23)ccc1C(=O)NCCCNC(=O)[C@H](CCCNC(=N)N)NC(=O)CC[C@H](N)C(=O)O [Example 407, N5-((S)-1-((3-(4-((3-(2,3-difluoro-4-methoxyphenyl)imidazo[1,2-a]pyrazin-8-yl)amino)-2-ethylbenzamido)propyl)amino)-5-guanidino-1-oxopentan-2-yl)-L-glutamine trihydrochloride] — 3.5-fold higher, 0.94 µM
- Cc1cc(Nc2nccn3c(-c4ccc(OC(F)F)cc4)cnc23)ccc1C(=O)N(C)CCN1CCCCC1 [Example 265, 4-[[3-[4-(difluoromethoxy)phenyl]im-idazo[1,2-a]pyrazin-8-yl]amino]-N,2-dimethyl-N-(2-piperidin-1-ylethyl)benzamide] — 19-fold higher, 5.1 µM
- CCc1cc(Nc2nccn3c(-c4ccc(OC(F)F)c(F)c4F)cnc23)ccc1C(=O)NCCCN1CCCC1 [Example 95, 4-((3-(4-(difluoromethoxy)-2,3-difluorophenyl)imidazo [1,2-a]pyrazin-8-yl)amino)-2-ethyl-N-(3-(pyrrolidin-1-yl)propyl)benzamide] — within 1.5-fold, 0.19 µM

Same assay, conditions: Acinetobacter baumannii, ATCC17978, 16 h, read-out: ATCC17978 IC90 [μM]

`CCOP(=O)(OCC)N1CCC(CCN(C)C(=O)c2ccc(Nc3nccn4c(-c5ccc(OC(F)F)cc5)cnc34)cc2C)CC1` [Example 115, N-[2-(1-diethoxyphosphoryl-4-piperidyl)ethyl]-4-[[3-[4-(difluoromethoxy)phenyl]imidazo[1,2-a]pyrazin-8-yl]amino]-N,2-dimethyl-benzamide] was tested, and the IC90 was 0.85 µM.

— patent US20230012368A1 (Hoffmann-La Roche Inc., priority 2018, published 2023)
